pEC50, pKi: −log10 of the molar value.
Experiments:
hEP2 [1] = molecular target: T1, hEP2 (Homo sapiens, UniProt P43116); experiment: cAMP assay, hEP2; assay type: cell-based
normotensive dogs = experiment: Intraocular pressure and ocular surface hyperemia in normotensive dogs; assay type: in vivo, dog; parameters: maximum OSH score: scale not given here; settings: once daily for 5 days
Description: (§1) (Z)-7-[(1R,2S,3R,5R)-5-Chloro-2-(3,5-dichloro-phenoxymethyl)-3-hydroxy-cyclopentyl]-hept-5-enoic acid (15b) was tested at multiple concentrations in normotensive dogs, dosing once daily for 5 days. At 0.05%, the maximum IOP decrease from baseline was 4.3 mmHg (30%) at 6 h; the maximum OSH score was 0.6 at 6 h. […] This compound was also tested in laser-induced hypertensive monkeys, using one single day dose. At 0.1%, the maximum IOP decrease from baseline was 6 mmHg (19%) at 6 h.
(§2) (Z)-7-[(1R,2S,3R,5R)-5-Chloro-2-(3,5-dichloro-phenoxymethyl)-3-hydroxy-cyclopentyl]-hept-5-enoic acid isopropyl ester (42b) was tested in normotensive dogs at 0.05%, dosing once daily for 5 days. The maximum intraocular pressure (IOP) decrease from baseline was 3 mmHg (19%) at 6 h; the maximum ocular surface hyperemia (OSH) score was 0.6 at 74 h. This compound was also tested in laser-induced hypertensive monkeys, using one single day dose. At 0.01%, the maximum IOP decrease from baseline was 6 mmHg (16%) at 6 h.

[2] = system: laser-induced hypertensive monkeys; experiment: Intraocular pressure in laser-induced hypertensive monkeys; assay type: in vivo, monkey; settings: one single day dose
Description: as §1, §2

hEP2 [3] = molecular target: T1, hEP2; experiment: Competition binding, [3H]PGE2, human EP2 receptors; parameters: expressed in transfected cells; host or cells: HEK 293; settings: [3H]PGE2, HEK 293 cells stably expressing human EP2; read-out: hEP2 Ki
Method in brief: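 HEK 293 membranes or cells stably expressing human EP2 were incubated with 10 nM [3H]PGE2 and test compound in HBSS/20 mM Hepes pH 7.3, 60 min at 23° C, then filtered. Non-specific binding defined with 10 μM PGE2; IC50 from single-site fit converted to Ki using KD 40 nM.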

hEP4 [4] = molecular target: T2, hEP4 (Homo sapiens, UniProt P35408); experiment: Radioligand binding, EP4 receptor; parameters: expressed in transfected cells; host or cells: HEK-293; settings: [3H]PGE2, HEK-293 cells expressing EP4
Method in brief: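 HEK-293 membranes stably expressing human EP4, in TME buffer pH 7.4; competition vs 5 nM [3H]-PGE2, 60 min at 25 °C, stopped by GF/B filtration. Non-specific binding defined with 10^−5 M unlabeled PGE2; duplicates, at least three experiments.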

hEP2 [5] = molecular target: T1, hEP2; experiment: FLIPR calcium signal, hEP2; assay type: cell-based; parameters: expressed in transfected cells; host or cells: HEK-293(EBNA); settings: HEK-293(EBNA) cells expressing hEP2/Gqs5
Method in brief: (§3)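 HEK-293(EBNA) cells stably expressing a single human prostaglandin receptor (hDP/Gqs5 chimera for DP), Fluo-4 AM loaded, in HBSS-HEPES pH 7.4 at 37 °C. Peak calcium fluorescence scaled to buffer and receptor standard agonist; 10^−5 M single-point or 10^−5–10^−11 M curves, duplicates, n≥3.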

hEP4 [6] = molecular target: T2, hEP4; experiment: FLIPR calcium signal, hEP4; assay type: cell-based; parameters: expressed in transfected cells; host or cells: HEK-293(EBNA); settings: HEK-293(EBNA) cells expressing hEP4/Gqs5
Method in brief: as §3

[7] = Canis lupus familiaris, topical, 120 h, 0.1%, read-out: maximum IOP decrease from baseline
[8] = Primates, topical, 0.1%, read-out: maximum IOP decrease from baseline

T1 sequence (P43116 whole entry): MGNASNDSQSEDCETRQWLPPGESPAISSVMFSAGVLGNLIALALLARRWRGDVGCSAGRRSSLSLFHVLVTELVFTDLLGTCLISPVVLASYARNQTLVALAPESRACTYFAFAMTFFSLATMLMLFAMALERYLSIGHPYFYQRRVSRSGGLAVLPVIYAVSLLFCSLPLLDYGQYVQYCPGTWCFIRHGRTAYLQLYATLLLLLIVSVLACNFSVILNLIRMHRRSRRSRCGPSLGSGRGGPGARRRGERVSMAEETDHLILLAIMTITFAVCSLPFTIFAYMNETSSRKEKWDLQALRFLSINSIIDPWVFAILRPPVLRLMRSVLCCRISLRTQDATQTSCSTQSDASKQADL
T2 sequence (P35408 whole entry): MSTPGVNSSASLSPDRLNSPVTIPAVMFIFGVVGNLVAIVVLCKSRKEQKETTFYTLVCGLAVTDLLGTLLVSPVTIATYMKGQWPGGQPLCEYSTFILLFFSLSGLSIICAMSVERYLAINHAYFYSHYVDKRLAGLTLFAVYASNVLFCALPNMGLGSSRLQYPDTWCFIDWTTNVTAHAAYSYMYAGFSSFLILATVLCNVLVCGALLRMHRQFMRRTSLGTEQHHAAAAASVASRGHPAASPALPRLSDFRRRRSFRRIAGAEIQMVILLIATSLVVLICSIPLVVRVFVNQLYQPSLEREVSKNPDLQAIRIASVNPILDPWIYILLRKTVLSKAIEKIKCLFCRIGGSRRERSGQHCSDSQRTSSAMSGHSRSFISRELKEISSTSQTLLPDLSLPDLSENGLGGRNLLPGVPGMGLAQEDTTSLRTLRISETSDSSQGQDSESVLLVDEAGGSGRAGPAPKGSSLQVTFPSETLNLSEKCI

SMILES | pEC50 (hEP2 [1]) | maximum IOP decrease from baseline (normotensive dogs; 0.1%) [mmHg] | maximum OSH score (normotensive dogs; 0.1%) | time of maximum IOP decrease (normotensive dogs; 0.1%) [h] | time of maximum OSH score (normotensive dogs; 0.1%) [h] | change in vivo at 0.1 % (normotensive dogs; [7]) [%] | maximum IOP decrease from baseline ([2]; 0.1%) [mmHg] | time of maximum IOP decrease ([2]; 0.1%) [h] | change in vivo at 0.1 % [2, 8] [%] | pKi (hEP2 [3]) | pKi (hEP4 [4]) | pEC50 (hEP2 [5]) | pEC50 (hEP4 [6]) | other results
O=C(O)CCC/C=C\C[C@@H]1[C@@H](COc2cc(C(F)(F)F)cc(C(F)(F)F)c2)[C@H](O)C[C@H]1Cl [Example 15, (Z)-7-[(1R,2S,3R,5R)-2-(3,5-Bis-trifluoromethyl-phenoxymethyl)-5-chloro-3-hydroxy-cyclopentyl]-hept-5-enoic acid] | 8.10 | 4.8 | 0.9 | 100 | 52 | 35 | 11 | 6 | 30 | 8.10 | 5.64 | 7.96 | 4.89 | –
O=C(O)CCC/C=C\C[C@@H]1[C@@H](COc2cccc3ccccc23)[C@H](O)C[C@H]1Cl [Example 19, (Z)-7-[(1R,2S,3R,5R)-5-Chloro-3-hydroxy-2-(naphthalen-1-yloxymethyl)-cyclopentyl]-hept-5-enoic acid] | 8.70 | 5.8 | 0.8 | 6 | 54 | 41 | 11.8 | 6 | 31 | 7.77 | 6.50 | 8.52 | 6.94 | –
O=C(O)CCC/C=C\C[C@@H]1[C@@H](COc2cccc(C(F)(F)F)c2)[C@H](O)C[C@H]1Cl [Example 24, (Z)-7-[(1R,2S,3R,5R)-5-Chloro-3-hydroxy-2-(3-trifluoromethyl-phenoxymethyl)-cyclopentyl]-hept-5-enoic acid] | 8.62 | 2.5 | 0.5 | 78 | 6 | 16 | 10.8 | 6 | 28 | 7.36 | 5.85 | 7.18 | 5.01 | –
Cc1cc(C)cc(OC[C@@H]2[C@@H](C/C=C\CCCC(=O)O)[C@H](Cl)C[C@H]2O)c1 [Example 36, (Z)-7-[(1R,2S,3R,5R)-5-Chloro-2-(3,5-dimethyl-phenoxymethyl)-3-hydroxy-cyclopentyl]-hept-5-enoic acid] | 8.85 | 6.5 | 1.2 | 52 | 28 | 46 | 9 | 2 | 25 | 7.51 | 5.96 | 7.57 | 5.11 | –
CC(C)OC(=O)CCC/C=C\C[C@@H]1[C@@H](COc2cc(C(F)(F)F)cc(C(F)(F)F)c2)[C@H](O)C[C@H]1Cl [Example 42c, (Z)-7-[(1R,2S,3R,5R)-2-(3,5-Bis-trifluoromethyl-phenoxymethyl)-5-chloro-3-hydroxy-cyclopentyl]-hept-5-enoic acid isopropyl ester] | – | – | – | – | – | – | – | – | – | – | – | – | – | maximum IOP decrease from baseline (normotensive dogs; 0.03%): 2.3 mmHg; maximum OSH score (normotensive dogs; 0.03%): 0.7; time of maximum IOP decrease (normotensive dogs; 0.03%): 100 h; time of maximum OSH score (normotensive dogs; 0.03%): 78 h; change in vivo at 0.03 % (normotensive dogs; Canis lupus familiaris, topical, 120 h, 0.03%, read-out: maximum IOP decrease from baseline): 14%; maximum IOP decrease from baseline ([2]; 0.03%): 4 mmHg; time of maximum IOP decrease ([2]; 0.03%): 6 h; change in vivo at 0.03 % ([2]; Primates, topical, 0.03%, read-out: maximum IOP decrease from baseline): 11%
CC(C)OC(=O)CCC/C=C\C[C@@H]1[C@@H](COc2cccc(C(F)(F)F)c2)[C@H](O)C[C@H]1Cl [Example 42i, (Z)-7-[(1R,2S,3R,5R)-5-Chloro-3-hydroxy-2-(3-trifluoromethyl-phenoxymethyl)-cyclopentyl]-hept-5-enoic acid isopropyl ester] | – | 2.7 | 0.6 | 2 | 50 | 19 | 4.7 | 6 | 14 | – | – | – | – | –
Cc1cc(C)cc(OC[C@@H]2[C@@H](C/C=C\CCCC(=O)OC(C)C)[C@H](Cl)C[C@H]2O)c1 [Example 42u, (Z)-7-[(1R,2S,3R,5R)-5-Chloro-2-(3,5-dimethyl-phenoxymethyl)-3-hydroxy-cyclopentyl]-hept-5-enoic acid isopropyl ester] | – | 4.3 | 0.9 | 30 | 74 | 30 | 8 | 6 | 23 | – | – | – | – | –
O=C(O)CCC/C=C\C[C@@H]1[C@@H](COc2ccc(CO)cc2)[C@H](O)C[C@H]1Cl [Example 43, (Z)-7-[(1R,2S,3R,5R)-5-Chloro-3-hydroxy-2-(4-hydroxymethyl-phenoxymethyl)-cyclopentyl]-hept-5-enoic acid] | 8.30 | 2.8 | 0.6 | 98 | 98 | 20 | 2 | 6 | 6 | 6.00 | < 5.00 | 7.36 | – | –
